Laboratory results as given in patent US20240342126A1, “HALLUCINOGEN-FATTY ACID COMBINATION” (Mindset Pharma Inc., priority 2021, published 2024).
“Also recorded” adds a separate entry of the source.

Assays:
[1] = test system: C57BL/6J mice; assay: Mouse head twitch experiments; assay type: in vivo; settings: for head twitch response of combination with linoleic acid vs test compound alone: equimolar dose of linoleic acid, SC; for effect on test compound-induced head twitches: M100907 0.5 mg/kg IP pretreatment
Procedure: Male, C57BL/6J mice (body weight range 20-30 g) were dosed with the appropriate dose(s) of test compound, or combination of test compounds, and following pre-treatment, the animals were placed in individual observation chambers. Animals were visually assessed for the incidence head twitches continuously over a 1 hr period. Head twitches were defined as a rapid jerk of the head which was not elicited by an external tactile stimulus (Corne S J, Pickering R W (1967) Psychopharmacologia 11 (1): 65-78). Each head twitch was individually counted by a trained observer, and the data expressed as the mean±SEM of 4-10 mice per group. In addition to the total number of head twitches recorded over the 1 hr observation period, head twitches were also scored according to each specific 10 min time bin within the 1 hr observation period (i.e. 0-10 min, 10-20 min, 20-30 min, etc).
Two types of experiments were conducted. In one, the effect of linoleic acid in combination with a test compound (psilocybin or 1-4) was studied. In these experiments, both test compounds, or saline control was injected subcutaneously (SC) 1 min prior to testing. […] In these experiments, M100907 (0.5 mg/kg IP) was injected 30 min prior to a single dose of test compound (i.e. psilocybin or I-4). […] 1 min following SC administration of the test compound, the mice were placed in the observation chambers for measurement of head twitch response.

[2] = molecular target: human 5-HT2A (Homo sapiens, UniProt P28223); settings: read-out: binding affinity 5-HT2A; cited from earlier work
[3] = Pharmacokinetics in plasma and CSF after i.n. or s.c. administration of 5-MeO-DMT formulations; settings: Sprague-Dawley, rat, plasma, iv, 1 mg/kg

human 5-HT2A, sequence (P28223 whole entry): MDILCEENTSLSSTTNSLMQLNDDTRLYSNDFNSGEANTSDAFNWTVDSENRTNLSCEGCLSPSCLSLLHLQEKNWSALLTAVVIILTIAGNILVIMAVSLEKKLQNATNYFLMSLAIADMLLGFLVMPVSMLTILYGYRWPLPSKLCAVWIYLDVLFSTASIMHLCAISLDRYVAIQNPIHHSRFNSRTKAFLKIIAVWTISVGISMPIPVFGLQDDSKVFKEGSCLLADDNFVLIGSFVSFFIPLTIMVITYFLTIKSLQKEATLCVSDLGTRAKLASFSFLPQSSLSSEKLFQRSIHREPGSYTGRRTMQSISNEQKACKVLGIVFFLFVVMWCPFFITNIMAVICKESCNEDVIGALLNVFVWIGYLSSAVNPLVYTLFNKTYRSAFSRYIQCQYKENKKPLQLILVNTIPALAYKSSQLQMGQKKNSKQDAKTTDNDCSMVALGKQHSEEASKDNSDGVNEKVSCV

CCCCC/C=C\C/C=C\CCCCCCCC(=O)O [linoleic acid]
head twitches over 1 hr (mean±SEM) ([1]; linoleic acid alone 10 mg/kg SC): 1.0±0.7
head twitches relative to vehicle ([1]; linoleic acid alone 0.1-10 mg/kg SC): did not induce head twitches to a significant degree; also recorded: no significant effect

[2H]C([2H])([2H])N(C([2H])([2H])[2H])C([2H])([2H])C([2H])([2H])c1c[nH]c2cccc(O)c12 [Compound I-4, 3-(2-(bis(methyl-d3)amino)ethyl-1,1,2,2-d4)-1H-indol-4-ol]
head twitches over 1 hr (mean±SEM) ([1]; 0.3 mg/kg SC + linoleic acid at […] SC): 7.8±0.6
head twitches over 1 hr (mean±SEM) ([1]; 0.3 mg/kg SC + vehicle): 3.3±0.8
head twitch response of combination with linoleic acid vs test compound alone [1]: more head twitches
head twitch response of combination with linoleic acid vs test compound alone ([1]; listed as 1-4): greater head twitch response

COc1cccc([C@H](O)C2CCN(CCc3ccc(F)cc3)CC2)c1OC [Compound M100907, reference compound]
effect on test compound-induced head twitches ([1]; head twitches induced by I-4 6.2 mg/kg SC): completely blocked
effect on test compound-induced head twitches ([1]; head twitches induced by psilocybin 3 mg/kg SC): completely blocked

CN(C)CCc1c[nH]c2ccccc12 [DMT, N,N-dimethyltryptamine]
Ki [2]: 0.237 µM

COc1ccc2[nH]cc(CCN(C)C)c2c1 [Compound 5-MeO-DMT, 5-methoxy-N,N-dimethyltryptamine]
AUC(0-inf) [3]: 0.0353 µg·h/mL
